In patent publication US7276531B2, “G-lactam derivatives as prostaglandin agonists” (Applied Research Systems ARS Holding N.V., priority 2003, dated 2007):

Columns and labels:
[1] = system: methacholine-induced bronchoconstriction; assay: In vivo inhibition of guinea pig broncho-constriction (methacholine-induced); details: Cavia porcellus, IT (intra-tracheal) route, read-out: calculated effective dose (ED50), bronchoconstriction
Text: The activity of compounds of the invention in dilation of bronchiolar muscles, may be tested in different models. Guinea pig pulmonary-cholinergic in vivo model is generally used to test the materials for the treatments of asthma in human (Fleisch et al., 1985) Compounds of the invention can be tested in this methacholine-induced bronchomuscle constriction model as described below.
Groups of 3 Duncan Hartley derived male or female guinea pigs weighing 250±50 g are anesthetized with pentobarbital sodium (50 mg/kg i.p., plus an additional 15 mg/kg i.p. if required) and succinylcholine chloride (2 mg/animal i.p.) is subsequently administered to prevent spontaneous respiration. Body temperature is maintained at 37° to 38° C.
The trachea is cannulated and the guinea pig is ventilated with a Harvard rodent respirator in a closed system. Tracheal pressure is recorded through a side-arm of the cannula connected to a P23ID Statham transducer. […] Mean arterial pressure (BP) is monitored from a cannulated carotid artery, and heart rate (HR) is obtained from chest electrodes arranged for lead II. […]
Compounds of the invention are also tested via intra-tracheal (IT) route of administration. […] Tracheal pressure (ITP), blood pressure and heart rate are measured immediately as indicated in the material and methods sections. […]

[2] = system: Dextran Sodium Sulfate-induced colitis; assay: In vivo inhibition of Dextran Sodium Sulfate-induced colitis; details: 0.1 mg/kg p.o. daily at days 3, 4, 5 and 6, DSS 4% mice
Text: The anti-inflammatory activity of compounds of the invention in colitis can be assayed as follows.
Within 6-10 days after ingesting Dextran Sodium Sulfate (DSS) mice show sign of diarrhea, rectal bleeding and weight loss and colonic mucosal lesions include multiple erosion, ulceration, and marked inflammatory cell infiltration.
Ulcerative colitis (UC) was induced in female mice (Balb/c, 20-22 g, Elevage Janvier) by Dextran Sodium Sulfate (DSS 4%) administered in drinking water. The mice had free access to DSS during 5 days.
The compounds of the invention were solubilized in […] and administered by gavage at days 3, 4, 5 and 6 after the induction of the UC.
The “treated group” wherein the animals have free access to DDS and are treated each day with compounds of the invention.
The “Dextran 4%” group wherein the animals have free access to DDS 4% and 0.5% CMC/O0.25% tween (vehicle) and are not treated.
• The body weight was determined daily. • The severity of the UC was assessed by a clinical score estimating the constituency of the stool (0=firm, 1=loose, 2=diarrhea) and the presence of blood (0=no blood, 1=occult blood, 2=gross rectal bleeding). • Seven days after the induction of the disease, the animals were sacrificed. The length and the weight of the colon were determined and the ratio Length/Weight/100 g body weight was calculated.
The percentages of inhibition of weight loss, of clinical scores and of increase in the ratio colon length/weight, are calculated as follows: % inhibition=(1−(“value for treated group”−“value for control group”/”value for Dextran 4% group”−“value for control group))*100.
The percentages of inhibition are calculated for each days 5, 6 and 7 for each parameter.

[3] = system: aspirin-induced gastric ulceration; assay: In vivo inhibition of aspirin-induced gastric ulceration; details: rats
Text: The activity of compounds of the invention as protective agents against gastric ulceration can be assayed as follows and as described in Guth et al., 1979. […]
Four hours later, animals are sacrificed and gastric ulceration is scored for degree of hemorrhage and severity of ulcerative lesions as follows: 0=no hyperemia or bleeding, 1=hyperaemia, 2=slight spot bleeding, 3=hyperemia plus slight spot bleeding, 4=hyperemia plus spot bleeding within entire stomach. Reduction of concurrent control score values by 50 percent or more (≧50%) is considered significant.

LPS-induced TNFα release = assay: In vivo inhibition of LPS-induced TNFα release in mice; details: LPS 0.3 mg/kg i.p.
Description: The anti-inflammatory activity of compounds of the invention may be assessed after a LPS challenge using the following protocol:
Eight weeks old C3H/H mice (IFFA-CREDO, L'arbresle, France) receive an oral treatment with compounds of the invention 6 different doses (0.001, 0.01, 0.1, 1 or 3 and 10 mg/kg in 0.5% CMC/0.25% tween-20). Six mice are used by group. Fifteen minutes later, endotoxins (O111:B4 Sigma, 0.3 mg/kg) are intraperitoneally injected. Heparinized whole blood is collected by decapitation. TNFα level is determined in plasma by ELISA (R & D Systems, Abdingdon, UK). Control animals receive 0.5% CMC/0.25% tween-20 (10 ml/kg) as vehicle. Data obtained from experiments are expressed as the mean±SEM and analysed using one-way analysis of variance (ANOVA) followed by Dunnett's t-test.

For `CCCC/C(C)=C/C=C\[C@H]1CCC(=O)N1CCc1ccc(C(=O)O)cc1` [Example 3, 4-(2-{(2R)-2-[(1Z,3E)-4-methylocta-1,3-dienyl]-5-oxopyrrolidin-1-yl}ethyl)benzoic acid], the ED50 [1] was 0.2 mg/kg, the “improved clinical score, increase compared to non-treated animals” value [2] was 40% and the “increased colon weight/length, increase compared to non-treated animals” value [2] was 36%. The “inhibition of loss of body-weight compared to non-treated animals” value [2] was 39%, the “percentage of protection (gastric ulceration)” value ([3]; 10 mg/kg administered orally) was 65% and the Ulceration scores ([3]; aspirin 150 mg/kg oral gavage) was “decreased in a dose-dependent manner”. For the same compound, the “% of Inhibition of TNF Release Mean ± SEM” value (LPS-induced TNFα release; oral dose 0.001 mg/kg) was 41 ± 5%, the “% of Inhibition of TNF Release Mean ± SEM” value (LPS-induced TNFα release; oral dose 0.01 mg/kg) was 43 ± 7% and the “% of Inhibition of TNF Release Mean ± SEM” value (LPS-induced TNFα release; oral dose 0.1 mg/kg) was 63 ± 3%. The “% of Inhibition of TNF Release Mean ± SEM” value (LPS-induced TNFα release; oral dose 1 mg/kg) was 68 ± 3% and the “% of Inhibition of TNF Release Mean ± SEM” value (LPS-induced TNFα release; oral dose 10 mg/kg) was 83 ± 3%.
